Patent publication US20260263543A1, “COMPOSITIONS AND METHODS TO INCREASE PRODUCTION OF GAMMA-AMINOBUTYRIC ACID” (Verb Biotics, priority 2023, published 2026)

What was measured:
healthy adults = assay: Urine GABA and 5-HIAA levels in human participants after Lp815 supplementation; format: in vivo; details: week 4, 1×10^9 cfu/day for 4 weeks
Protocol: The Lactiplantibacillus plantarum Lp815 strain was assessed for its ability to increase GABA levels in human participants. Eight healthy adults (5 female, 3 male) provided a urine sample at baseline (T=0). Urine was analyzed for GABA and 5-HIAA levels using the Neurotransmitter Basic Panel (available from Life Extension/National Diagnostics, Inc.). 5-HIAA is a metabolite of serotonin and indicative of serotonin levels in a subject. Participants with GABA levels in the high range at baseline ([…] GABA) were excluded from the study. Participants proceeded to take the Lp815 probiotic at 1×10^9 cfu/day for 4 weeks. Participants refrained from beginning any new treatments, using antibiotics, or taking any additional probiotic products.
After 4 weeks of supplementation, a second urine sample was collected and GABA levels measured. […] Additionally, levels of 5-HIAA were increased by approximately 10% at week 4 relative to baseline (FIG. 1B).

GABA production = assay: Synthesis of GABA in vitro (conversion of glutamate to GABA in culture); format: cell-based, Lactiplantibacillus plantarum; details: cultures grown under anaerobic conditions at ~37° C. for 48 hours; data not shown
Protocol: The Lactiplantibacillus plantarum Lp815 strain was assessed for its ability to convert glutamate to GABA in vitro. Overnight, stationary phase cultures (16-18 h) of L. plantarum Lp815 were used to inoculate 3 mL of fresh media at an optical density of ~0.05 as measured at 600 nm by a spectrophotometer (OD600). Multiple media types can be used, including rich media (e.g., MRS broth) or minimal media supplemented with the necessary components to support growth. The media can further be supplemented with L (+)-glutamic acid or a salt thereof and/or piperazine-N,N′-bis(2-ethanesulfonic acid) (PIPES). Cultures were grown under anerobic conditions at ~37° C. for 48 hours.

[1] = system: Participants with self-reported mild to moderate anxiety; assay: Double blind, randomized, placebo-controlled study of GAD-7 generalized anxiety scores; format: in vivo, human; details: 1×10^9 CFU or 5×10^9 CFU daily; weeks 2, 4, and 6; FIG. 2
Protocol: A double blind, randomized, placebo-controlled study was conducted to assess the impact of Lactiplantibacillus plantarum Lp815 on generalized anxiety scores. Participants with self-reported mild to moderate anxiety as measured by the GAD-7 questionnaire were enrolled in a six week trial. Participants with severe anxiety were excluded.
The GAD-7 questionnaire is a self-reported questionnaire that assesses anxiety levels based on 7 questions as measured over the last two weeks: 1) feeling nervous, anxious, or on edge, 2) not being able to stop or control worrying, 3) worrying too much about different things, 4) trouble relaxing, 5) being so restless that it is hard to sit still, 6) becoming easily annoyed or irritable, and 7) feeling afraid as if something awful might happen. For each question, a score of 0 (not at all), 1 (several days), 2 (more than half the days), or 3 (nearly every day) is assigned. The total score is a sum across the seven questions. A total score of 0-4 indicates minimal anxiety, 5-9 indicates mild anxiety, 10-14 indicates moderate anxiety, and 15-21 indicates severe anxiety.
Participants were divided into either placebo, 1×10^9 CFU daily of Lp815 or 5×10^9 CFU daily of Lp815. The GAD-7 questionnaire was administered at baseline, 2 weeks, 4 weeks and 6 weeks following supplementation.

Substance: Lactiplantibacillus plantarum Lp815
- GABA levels increase relative to baseline (healthy adults; FIG. 1A): approximately 20%
- levels of 5-HIAA increase relative to baseline (healthy adults; FIG. 1B): approximately 10%
- GABA production (GABA production): increase in GABA production
- decrease in GAD-7 scores relative to baseline [1]: 10-15 points
